≈ marks a conversion by molar mass, not a printed value. Read-outs that look alike come from different tables or passages of the source.
How the values were obtained:
E. coli = experiment: antibiotic activity (MIC); format: cell-based; details: Escherichia coli
Text: (§1) Thus, it is possible to achieve an antimicrobial steroid with or without squalamine-like pharmacological activity.

S. aureus = experiment: antibiotic activity (MIC); format: cell-based; details: Staphylococcus aureus
Text: as §1

C. albicans = experiment: antibiotic activity (MIC); format: cell-based; details: Candida albicans; C. albicans; read-out: MIC
Text: as §1

P. aerug = experiment: antibiotic activity (MIC); format: cell-based; details: P. aerug; read-out: MIC
Text: as §1

[1] = tested on: stage 59-60 Xenopus tadpole; experiment: Xenopus tadpole assay; details: in vivo

SMILES: CC(C)CCC[C@@H](C)[C@H]1CC[C@H]2[C@@H]3CC[C@H]4C[C@@H](NCCCNCCCCN)CC[C@]4(C)[C@H]3CC[C@]12C [Compound 303]
- MIC (E. coli; E. coli, read-out: MIC): 128 to 256 µg/mL (≈ 248 to 496 µM)
- MIC (S. aureus; S. aureus, read-out: MIC): 8 µg/mL (≈ 15.5 µM)
- MIC (C. albicans): 256 µg/mL (≈ 496 µM)
- MIC (P. aerug): 128 µg/mL (≈ 248 µM)

SMILES: CC(C)CCC[C@@H](C)[C@H]1CC[C@H]2[C@@H]3CC[C@H]4C[C@H](NCCCNCCCCN)CC[C@]4(C)[C@H]3CC[C@]12C [Compound 304]
- MIC (E. coli; E. coli, read-out: MIC): 128 µg/mL (≈ 248 µM)
- MIC (S. aureus; S. aureus, read-out: MIC): 2 to 4 µg/mL (≈ 3.88 to 7.75 µM)
- MIC (C. albicans): 128 µg/mL (≈ 248 µM)
- MIC (P. aerug): 128 µg/mL (≈ 248 µM)

SMILES: C[C@H](CCC(=O)O)[C@H]1CC[C@H]2[C@@H]3CC[C@H]4C[C@H](NCCCNCCCCN)CC[C@]4(C)[C@H]3CC[C@]12C [Compound 318]
- MIC (E. coli; E. coli, read-out: MIC): 32 µg/mL (≈ 63.5 µM)
- MIC (S. aureus; S. aureus, read-out: MIC): 128 µg/mL (≈ 254 µM)
- MIC (C. albicans): > 256 µg/mL
- MIC (P. aerug): 64 µg/mL (≈ 127 µM)

SMILES: CC(C)CCC[C@@H](C)[C@H]1CC[C@H]2[C@@H]3CC[C@H]4C[C@H](NCCCNCCCCNCCCN)CC[C@]4(C)[C@H]3CC[C@]12C [Compound 354]
- MIC (E. coli; E. coli, read-out: MIC): 64 to 128 µg/mL (≈ 112 to 223 µM)
- MIC (S. aureus; S. aureus, read-out: MIC): 8 µg/mL (≈ 14 µM)
- MIC (C. albicans): 16 to 32 µg/mL (≈ 27.9 to 55.8 µM)
- MIC (P. aerug): 64 µg/mL (≈ 112 µM)

SMILES: COC(=O)CC[C@@H](C)[C@H]1CC[C@H]2[C@@H]3[C@H](O)C[C@@H]4C[C@@H](NCCCNCCCCN)CC[C@]4(C)[C@H]3CC[C@]12C [Compound 355]
- MIC (E. coli; E. coli, read-out: MIC): 256 µg/mL (≈ 480 µM)
- MIC (S. aureus; S. aureus, read-out: MIC): 64 µg/mL (≈ 120 µM)
- MIC (C. albicans): 256 µg/mL (≈ 480 µM)
- MIC (P. aerug): > 256 µg/mL

SMILES: COC(=O)CC[C@@H](C)[C@H]1CC[C@H]2[C@@H]3[C@H](O)C[C@@H]4C[C@H](NCCCNCCCCN)CC[C@]4(C)[C@H]3CC[C@]12C [Compound 356]
- MIC (E. coli; E. coli, read-out: MIC): 32 to 64 µg/mL (≈ 59.9 to 120 µM)
- MIC (S. aureus; S. aureus, read-out: MIC): 4 µg/mL (≈ 7.49 µM)
- MIC (C. albicans): 64 µg/mL (≈ 120 µM)
- MIC (P. aerug): 64 µg/mL (≈ 120 µM)

SMILES: CC(C)CCC[C@@H](C)[C@H]1CC[C@H]2[C@@H]3[C@H](O)C[C@H]4C[C@H](NCCCNCCCCN)CC[C@]4(C)[C@H]3CC[C@]12C [Compound 370]
- MIC (E. coli; E. coli, read-out: MIC): 32 µg/mL (≈ 60.2 µM)
- MIC (S. aureus; S. aureus, read-out: MIC): 4 µg/mL (≈ 7.52 µM)
- MIC (C. albicans): 2 µg/mL (≈ 3.76 µM)
- MIC (P. aerug): 64 µg/mL (≈ 120 µM)
- similarity of pharmacologic activity in tadpole assay [1]: pharmacologic activity similar to that seen for FX 3

SMILES: CC(C)CCC[C@@H](C)[C@H]1CC[C@H]2[C@@H]3[C@H](O)C[C@H]4C[C@@H](NCCCNCCCCN)CC[C@]4(C)[C@H]3CC[C@]12C [Compound 371]
- MIC (E. coli; E. coli, read-out: MIC): 64 µg/mL (≈ 120 µM)
- MIC (S. aureus; S. aureus, read-out: MIC): 4 µg/mL (≈ 7.52 µM)
- MIC (C. albicans): 2 µg/mL (≈ 3.76 µM)
- MIC (P. aerug): 64 µg/mL (≈ 120 µM)
- similarity of pharmacologic activity in tadpole assay [1]: effects like those produced by compound 1436

SMILES: COC(=O)CC[C@@H](C)[C@H]1CC[C@H]2[C@@H]3[C@H](O)C[C@H]4C[C@@H](NCCCNCCCCN)CC[C@]4(C)[C@H]3CC[C@]12C [Compound 380]
- MIC (E. coli; E. coli, read-out: MIC): 32 µg/mL (≈ 59.9 µM)
- MIC (S. aureus; S. aureus, read-out: MIC): 4 to 8 µg/mL (≈ 7.49 to 15 µM)
- MIC (C. albicans): 32 µg/mL (≈ 59.9 µM)
- MIC (P. aerug): 64 µg/mL (≈ 120 µM)

SMILES: C[C@H](CCC(=O)O)[C@H]1CC[C@H]2[C@@H]3[C@H](O)C[C@H]4C[C@@H](NCCCNCCCCN)CC[C@]4(C)[C@H]3CC[C@]12C [Compound 381]
- MIC (E. coli; E. coli, read-out: MIC): 64 µg/mL (≈ 123 µM)
- MIC (S. aureus; S. aureus, read-out: MIC): 32 µg/mL (≈ 61.6 µM)
- MIC (C. albicans): 128 µg/mL (≈ 246 µM)
- MIC (P. aerug): 32 µg/mL (≈ 61.6 µM)

SMILES: C[C@H](CCC(=O)O)[C@H]1CC[C@H]2[C@@H]3[C@H](O)C[C@H]4C[C@H](NCCCNCCCCN)CC[C@]4(C)[C@H]3CC[C@]12C [Compound 382]
- MIC (E. coli; E. coli, read-out: MIC): 64 µg/mL (≈ 123 µM)
- MIC (S. aureus; S. aureus, read-out: MIC): 16 µg/mL (≈ 30.8 µM)
- MIC (C. albicans): 32 µg/mL (≈ 61.6 µM)
- MIC (P. aerug): 32 µg/mL (≈ 61.6 µM)

SMILES: CC(C)C(O)CC[C@@H](C)[C@H]1CC[C@H]2[C@@H]3[C@H](O)C[C@H]4C[C@H](NCCCNCCCCN)CC[C@]4(C)[C@H]3CC[C@]12C (stereo partly drawn) [Compound 387, 3α-(1,5,10-Triazadecyl) cholestan-7α,24.xi.-diol]
- MIC (E. coli; E. coli, read-out: MIC): 128 µg/mL (≈ 234 µM)
- MIC (S. aureus; S. aureus, read-out: MIC): 16 to 32 µg/mL (≈ 29.2 to 58.4 µM)
- MIC (C. albicans): 64 µg/mL (≈ 117 µM)
- MIC (P. aerug): 256 µg/mL (≈ 467 µM)

SMILES: CC(C)C(CC[C@@H](C)[C@H]1CC[C@H]2[C@@H]3[C@H](O)C[C@H]4C[C@H](NCCCNCCCCN)CC[C@]4(C)[C@H]3CC[C@]12C)OS(=O)(=O)O (stereo partly drawn) [Compound 388, 3-Episqualamine]
- MIC (E. coli; E. coli, read-out: MIC): 4 to 8 µg/mL (≈ 6.37 to 12.7 µM)
- MIC (S. aureus; S. aureus, read-out: MIC): 2 to 4 µg/mL (≈ 3.18 to 6.37 µM)
- MIC (C. albicans): 16 µg/mL (≈ 25.5 µM)
- MIC (P. aerug): 16 µg/mL (≈ 25.5 µM)

SMILES: CC(C)CCC[C@@H](C)[C@H]1CC[C@H]2[C@@H]3CC[C@H]4C[C@H](NCCCN5CCCCN=C5N)CC[C@]4(C)[C@H]3CC[C@]12C [Compound 393]
- MIC (E. coli): > 256 µg/mL
- MIC (S. aureus): 3 µg/mL (≈ 5.55 µM)
- MIC (C. albicans): 32 µg/mL (≈ 59.2 µM)
- MIC (P. aerug): > 256 µg/mL

SMILES: COC(=O)CC[C@@H](C)[C@H]1CC[C@H]2[C@@H]3[C@H](O)C[C@H]4C[C@H](NCCCNCCCCN)CC[C@]4(C)[C@H]3CC[C@]12C [Compound 394]
- MIC (E. coli; E. coli, read-out: MIC): 64 µg/mL (≈ 120 µM)
- MIC (S. aureus; S. aureus, read-out: MIC): 4 µg/mL (≈ 7.49 µM)
- MIC (C. albicans): 32 µg/mL (≈ 59.9 µM)
- MIC (P. aerug): 64 µg/mL (≈ 120 µM)

SMILES: COC(=O)CC[C@@H](C)[C@H]1CC[C@H]2[C@@H]3[C@H](O)C[C@H]4CC(NCCCNCCCCNCCCN)CC[C@]4(C)[C@H]3CC[C@]12C (stereo partly drawn) [Compound 395]
- MIC (E. coli; E. coli, read-out: MIC): 32 µg/mL (≈ 54.2 µM)
- MIC (S. aureus; S. aureus, read-out: MIC): 4 µg/mL (≈ 6.77 µM)
- MIC (C. albicans): 64 µg/mL (≈ 108 µM)
- MIC (P. aerug): 64 µg/mL (≈ 108 µM)
